Source: ChEMBL document CHEMBL4800727 (2021)

Legend:
[1] = target: T1, Alpha-2B adrenergic receptor (Homo sapiens) (UniProt P18089); conditions: Compound concentration 10.0 uM
T1 sequence (whole entry): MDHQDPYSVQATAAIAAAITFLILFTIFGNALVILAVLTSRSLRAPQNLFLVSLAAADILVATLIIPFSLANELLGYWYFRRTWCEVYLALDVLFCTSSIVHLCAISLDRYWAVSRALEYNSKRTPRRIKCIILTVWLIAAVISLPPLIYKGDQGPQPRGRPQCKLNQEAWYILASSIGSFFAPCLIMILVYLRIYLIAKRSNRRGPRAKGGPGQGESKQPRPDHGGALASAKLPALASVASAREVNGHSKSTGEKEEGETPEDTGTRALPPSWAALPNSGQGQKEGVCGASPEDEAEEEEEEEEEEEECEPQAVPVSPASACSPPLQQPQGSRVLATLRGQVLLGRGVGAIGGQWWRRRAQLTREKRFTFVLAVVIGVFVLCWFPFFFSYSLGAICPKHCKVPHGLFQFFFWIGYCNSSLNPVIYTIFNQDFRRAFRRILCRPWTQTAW

[2] = target: cAMP and cAMP-inhibited cGMP 3',5'-cyclic phosphodiesterase 10A (Homo sapiens, UniProt Q9Y233); assay: In vitro assay with human PDE10A
[3] = target: Serine/threonine-protein kinase mTOR (Homo sapiens) (UniProt P42345); assay: mechanistic target of rapamycin Millipore kinase panel; conditions: Compound concentration 10.0 uM
[4] = target: Rho-associated protein kinase 2 (Homo sapiens) (UniProt O75116); assay: Rho-associated, coiled-coil containing protein kinase 2 Millipore kinase panel; conditions: Compound concentration 10.0 uM
Homo sapiens = species: Homo sapiens; assay: hN muscle type alpha Cerep panel; conditions: Compound concentration 10.0 uM
[5] = target: Mu-type opioid receptor (Homo sapiens) (UniProt P35372); assay: hOP3 Cerep panel; conditions: Compound concentration 10.0 uM
[6] = target: 5-hydroxytryptamine receptor 7 (Homo sapiens, UniProt P34969); assay: GPCRScan assay: inhibition of 5-HT7A; parameters: radioligand conc. used [nm] 5.0 – 6.0, parental cells Stable HEK
[7] = target: Serine/threonine-protein kinase Sgk3 (Homo sapiens) (UniProt Q96BR1); assay: serum/glucocorticoid regulated kinase family, member 3 Millipore kinase panel; conditions: Compound concentration 10.0 uM
[8] = target: Sodium-dependent noradrenaline transporter (Homo sapiens) (UniProt P23975); assay: hNET Cerep panel; conditions: Compound concentration 10.0 uM
[9] = target: Neuropeptide Y receptor type 1 (Homo sapiens) (UniProt P25929); assay: hNPY1 Cerep panel; conditions: Compound concentration 10.0 uM
[10] = target: RAC-alpha serine/threonine-protein kinase (Homo sapiens) (UniProt P31749); assay: v-akt murine thymoma viral oncogene homolog 1 Millipore kinase panel; conditions: Compound concentration 10.0 uM
[11] = target: Histamine H1 receptor (Homo sapiens) (UniProt P35367); assay: hH1 Cerep panel; conditions: Compound concentration 10.0 uM
[12] = target: Galanin receptor type 2 (Homo sapiens) (UniProt O43603); assay: hGAL2 Cerep panel; conditions: Compound concentration 10.0 uM
[13] = target: Activated CDC42 kinase 1 (Homo sapiens) (UniProt Q07912); assay: tyrosine kinase, non-receptor, 2 Millipore kinase panel; conditions: Compound concentration 10.0 uM
[14] = target: cAMP and cAMP-inhibited cGMP 3',5'-cyclic phosphodiesterase 10A (Mus musculus) (UniProt Q8CA95)
[15] = target: mTOR/FKBP12A/FKBP12B (Homo sapiens) (UniProt P62942+P68106+P42345); assay: mechanistic target of rapamycin / FKBP12 Millipore kinase panel; assay type: protein-complex assay; conditions: Compound concentration 10.0 uM
[16] = target: 5-hydroxytryptamine receptor 6 (Homo sapiens) (UniProt P50406); assay: h5HT6 Cerep panel; conditions: Compound concentration 10.0 uM
[17] = target: Protein kinase C alpha type (Homo sapiens) (UniProt P17252); assay: protein kinase C, alpha Millipore kinase panel; conditions: Compound concentration 10.0 uM
[18] = target: Insulin-like growth factor 1 receptor (Homo sapiens) (UniProt P08069); assay: insulin-like growth factor 1 receptor (activated) Millipore kinase panel; conditions: Compound concentration 10.0 uM
[19] = target: Vascular endothelial growth factor receptor 2 (Homo sapiens) (UniProt P35968); assay: kinase insert domain receptor Millipore kinase panel; conditions: Compound concentration 10.0 uM
[20] = target: Ribosomal protein S6 kinase alpha-1 (Homo sapiens) (UniProt Q15418); assay: ribosomal protein S6 kinase, 90kDa, polypeptide 1 Millipore kinase panel; conditions: Compound concentration 10.0 uM
[21] = target: Cyclin-dependent kinase 5/CDK5 activator 1 (Homo sapiens) (UniProt Q00535+Q15078); assay: cyclin-dependent kinase 5 / p25 Millipore kinase panel; assay type: protein-complex assay; conditions: Compound concentration 10.0 uM
Rattus norvegicus = species: Rattus norvegicus; assay: rGlutamate (ionotropic) kanic acid Cerep panel; conditions: Compound concentration 10.0 uM
[22] = target: Ephrin type-A receptor 8 (Homo sapiens) (UniProt P29322); assay: EPH receptor A8 Millipore kinase panel; conditions: Compound concentration 10.0 uM
[23] = target: Serine/threonine-protein kinase PLK3 (Homo sapiens) (UniProt Q9H4B4); assay: polo-like kinase 3 Millipore kinase panel; conditions: Compound concentration 10.0 uM
[24] = target: Serine/threonine-protein kinase pim-3 (Homo sapiens) (UniProt Q86V86); assay: pim-3 oncogene Millipore kinase panel; conditions: Compound concentration 10.0 uM
[25] = target: Prostacyclin receptor (Homo sapiens) (UniProt P43119); assay: hIP1 Cerep panel; conditions: Compound concentration 10.0 uM
[26] = target: Macrophage colony-stimulating factor 1 receptor (Homo sapiens) (UniProt P07333); assay: colony stimulating factor 1 receptor Millipore kinase panel; conditions: Compound concentration 10.0 uM
[27] = target: T2, 5-hydroxytryptamine receptor 3A (Homo sapiens) (UniProt P46098); assay: h5HT3 Cerep panel; conditions: Compound concentration 10.0 uM
T2 sequence (whole entry): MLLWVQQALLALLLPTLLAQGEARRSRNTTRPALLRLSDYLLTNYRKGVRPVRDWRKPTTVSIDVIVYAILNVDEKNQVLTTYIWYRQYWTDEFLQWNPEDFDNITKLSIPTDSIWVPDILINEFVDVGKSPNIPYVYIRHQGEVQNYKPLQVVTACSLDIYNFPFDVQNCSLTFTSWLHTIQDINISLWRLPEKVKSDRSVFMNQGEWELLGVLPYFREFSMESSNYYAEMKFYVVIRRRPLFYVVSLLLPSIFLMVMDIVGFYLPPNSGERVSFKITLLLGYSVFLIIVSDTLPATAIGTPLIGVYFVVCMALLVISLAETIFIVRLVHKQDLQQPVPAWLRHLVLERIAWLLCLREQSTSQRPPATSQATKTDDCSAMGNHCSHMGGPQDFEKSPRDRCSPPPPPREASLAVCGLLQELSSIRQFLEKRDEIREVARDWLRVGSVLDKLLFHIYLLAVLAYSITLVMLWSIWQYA

[28] = target: Testis-specific serine/threonine-protein kinase 1 (Homo sapiens) (UniProt Q9BXA7); assay: testis-specific serine kinase 1B Millipore kinase panel; conditions: Compound concentration 10.0 uM
[29] = target: Toll-like receptor 4 (Homo sapiens) (UniProt O00206); assay: Toll like receptor 4 Millipore kinase panel; conditions: Compound concentration 10.0 uM
[30] = target: Rhodopsin kinase GRK7 (Homo sapiens) (UniProt Q8WTQ7); assay: G protein-coupled receptor kinase 7 Millipore kinase panel; conditions: Compound concentration 10.0 uM
[31] = target: cGMP-dependent 3',5'-cyclic phosphodiesterase (Homo sapiens, UniProt O00408); assay: hPDE2A PDE scan
[32] = target: RAF proto-oncogene serine/threonine-protein kinase (Homo sapiens) (UniProt P04049); assay: v-raf-1 murine leukemia viral oncogene homolog 1 Millipore kinase panel; conditions: Compound concentration 10.0 uM
[33] = target: Ephrin type-A receptor 3 (Homo sapiens) (UniProt P29320); assay: EPH receptor A3 Millipore kinase panel; conditions: Compound concentration 10.0 uM
[34] = target: Serine/threonine-protein kinase 4 (Homo sapiens) (UniProt Q13043); assay: serine/threonine kinase 4 Millipore kinase panel; conditions: Compound concentration 10.0 uM
[35] = target: Protein kinase C eta type (Homo sapiens) (UniProt P24723); assay: protein kinase C, eta Millipore kinase panel; conditions: Compound concentration 10.0 uM

Mu-type opioid receptor (Homo sapiens), sequence (P35372 whole entry): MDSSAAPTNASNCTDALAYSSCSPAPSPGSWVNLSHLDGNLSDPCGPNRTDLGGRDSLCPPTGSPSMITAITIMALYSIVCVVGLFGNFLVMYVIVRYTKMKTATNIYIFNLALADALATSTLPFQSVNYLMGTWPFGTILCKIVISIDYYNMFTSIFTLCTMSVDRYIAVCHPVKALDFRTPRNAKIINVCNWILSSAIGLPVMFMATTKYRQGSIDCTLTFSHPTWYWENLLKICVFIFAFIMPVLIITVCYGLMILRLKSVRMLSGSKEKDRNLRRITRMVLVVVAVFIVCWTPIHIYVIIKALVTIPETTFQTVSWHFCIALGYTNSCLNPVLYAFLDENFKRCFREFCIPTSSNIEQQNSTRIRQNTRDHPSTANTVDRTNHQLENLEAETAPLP
Cyclin-dependent kinase 5/CDK5 activator 1 (Homo sapiens), sequence (Q00535 whole entry): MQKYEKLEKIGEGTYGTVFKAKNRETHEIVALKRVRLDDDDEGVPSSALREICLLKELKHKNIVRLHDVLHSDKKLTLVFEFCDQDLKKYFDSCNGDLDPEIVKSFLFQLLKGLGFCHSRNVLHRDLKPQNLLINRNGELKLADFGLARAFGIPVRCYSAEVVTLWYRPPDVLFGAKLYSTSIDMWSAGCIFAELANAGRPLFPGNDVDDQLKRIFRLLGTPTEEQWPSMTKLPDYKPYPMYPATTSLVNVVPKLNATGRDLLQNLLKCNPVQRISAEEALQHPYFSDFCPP
Cyclin-dependent kinase 5/CDK5 activator 1 (Homo sapiens), sequence (Q15078 99-307 partner limits assumed): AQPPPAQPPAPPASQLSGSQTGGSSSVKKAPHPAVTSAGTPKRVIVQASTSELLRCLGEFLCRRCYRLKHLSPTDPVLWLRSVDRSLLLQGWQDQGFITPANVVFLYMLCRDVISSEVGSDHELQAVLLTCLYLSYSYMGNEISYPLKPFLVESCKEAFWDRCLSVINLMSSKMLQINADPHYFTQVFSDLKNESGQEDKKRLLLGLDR
Galanin receptor type 2 (Homo sapiens), sequence (O43603 whole entry): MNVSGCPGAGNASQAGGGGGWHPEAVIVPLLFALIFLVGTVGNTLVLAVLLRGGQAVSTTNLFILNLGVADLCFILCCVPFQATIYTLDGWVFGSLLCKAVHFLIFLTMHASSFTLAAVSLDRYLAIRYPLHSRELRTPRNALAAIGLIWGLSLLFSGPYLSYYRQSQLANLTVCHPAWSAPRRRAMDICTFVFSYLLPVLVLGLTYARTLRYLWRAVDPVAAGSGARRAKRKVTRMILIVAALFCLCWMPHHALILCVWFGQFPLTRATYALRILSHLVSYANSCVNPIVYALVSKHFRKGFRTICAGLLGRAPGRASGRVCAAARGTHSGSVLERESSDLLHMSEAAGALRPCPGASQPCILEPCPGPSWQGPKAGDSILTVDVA
cGMP-dependent 3',5'-cyclic phosphodiesterase, sequence (O00408 whole entry): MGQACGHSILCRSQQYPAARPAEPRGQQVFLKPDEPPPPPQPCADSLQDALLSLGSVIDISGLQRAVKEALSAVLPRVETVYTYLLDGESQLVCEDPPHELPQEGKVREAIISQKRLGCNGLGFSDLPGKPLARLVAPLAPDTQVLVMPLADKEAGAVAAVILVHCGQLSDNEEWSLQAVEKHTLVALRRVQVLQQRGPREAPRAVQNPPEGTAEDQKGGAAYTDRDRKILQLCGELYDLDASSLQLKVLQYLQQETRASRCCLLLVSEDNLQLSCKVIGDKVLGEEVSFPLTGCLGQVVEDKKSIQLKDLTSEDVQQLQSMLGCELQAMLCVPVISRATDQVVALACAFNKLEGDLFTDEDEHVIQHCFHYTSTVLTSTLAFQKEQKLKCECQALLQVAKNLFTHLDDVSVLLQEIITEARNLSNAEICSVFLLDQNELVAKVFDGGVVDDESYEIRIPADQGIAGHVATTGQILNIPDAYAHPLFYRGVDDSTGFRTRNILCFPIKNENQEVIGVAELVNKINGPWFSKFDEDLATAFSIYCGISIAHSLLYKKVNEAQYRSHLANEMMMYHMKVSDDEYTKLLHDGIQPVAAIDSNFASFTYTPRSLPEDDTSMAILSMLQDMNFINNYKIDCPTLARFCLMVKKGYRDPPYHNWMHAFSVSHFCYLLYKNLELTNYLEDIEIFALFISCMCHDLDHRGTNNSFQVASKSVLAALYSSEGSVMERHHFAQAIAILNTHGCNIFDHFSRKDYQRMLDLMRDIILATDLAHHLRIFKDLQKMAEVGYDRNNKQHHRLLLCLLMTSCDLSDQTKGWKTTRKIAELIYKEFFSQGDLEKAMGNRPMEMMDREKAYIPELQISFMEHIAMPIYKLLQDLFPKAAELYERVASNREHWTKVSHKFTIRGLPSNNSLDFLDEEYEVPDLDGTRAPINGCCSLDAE
RAF proto-oncogene serine/threonine-protein kinase (Homo sapiens), sequence (P04049 whole entry): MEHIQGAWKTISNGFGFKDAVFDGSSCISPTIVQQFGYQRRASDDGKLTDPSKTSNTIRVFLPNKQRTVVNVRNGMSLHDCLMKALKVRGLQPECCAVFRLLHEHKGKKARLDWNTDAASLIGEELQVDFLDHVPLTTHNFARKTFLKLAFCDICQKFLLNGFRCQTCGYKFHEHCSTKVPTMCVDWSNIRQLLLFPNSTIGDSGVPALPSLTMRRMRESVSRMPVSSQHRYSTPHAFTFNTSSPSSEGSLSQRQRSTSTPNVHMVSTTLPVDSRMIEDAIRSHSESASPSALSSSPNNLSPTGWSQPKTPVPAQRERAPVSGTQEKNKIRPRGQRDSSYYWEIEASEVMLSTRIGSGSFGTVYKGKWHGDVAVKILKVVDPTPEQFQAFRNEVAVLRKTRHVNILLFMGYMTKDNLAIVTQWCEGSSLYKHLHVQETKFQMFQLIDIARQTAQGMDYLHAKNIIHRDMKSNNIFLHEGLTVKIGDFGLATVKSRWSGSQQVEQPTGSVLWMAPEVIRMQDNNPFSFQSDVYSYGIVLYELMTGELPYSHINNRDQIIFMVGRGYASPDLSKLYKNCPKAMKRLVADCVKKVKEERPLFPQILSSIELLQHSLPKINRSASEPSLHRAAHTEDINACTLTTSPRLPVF
Vascular endothelial growth factor receptor 2 (Homo sapiens), sequence (P35968 whole entry, the tested form may be a part): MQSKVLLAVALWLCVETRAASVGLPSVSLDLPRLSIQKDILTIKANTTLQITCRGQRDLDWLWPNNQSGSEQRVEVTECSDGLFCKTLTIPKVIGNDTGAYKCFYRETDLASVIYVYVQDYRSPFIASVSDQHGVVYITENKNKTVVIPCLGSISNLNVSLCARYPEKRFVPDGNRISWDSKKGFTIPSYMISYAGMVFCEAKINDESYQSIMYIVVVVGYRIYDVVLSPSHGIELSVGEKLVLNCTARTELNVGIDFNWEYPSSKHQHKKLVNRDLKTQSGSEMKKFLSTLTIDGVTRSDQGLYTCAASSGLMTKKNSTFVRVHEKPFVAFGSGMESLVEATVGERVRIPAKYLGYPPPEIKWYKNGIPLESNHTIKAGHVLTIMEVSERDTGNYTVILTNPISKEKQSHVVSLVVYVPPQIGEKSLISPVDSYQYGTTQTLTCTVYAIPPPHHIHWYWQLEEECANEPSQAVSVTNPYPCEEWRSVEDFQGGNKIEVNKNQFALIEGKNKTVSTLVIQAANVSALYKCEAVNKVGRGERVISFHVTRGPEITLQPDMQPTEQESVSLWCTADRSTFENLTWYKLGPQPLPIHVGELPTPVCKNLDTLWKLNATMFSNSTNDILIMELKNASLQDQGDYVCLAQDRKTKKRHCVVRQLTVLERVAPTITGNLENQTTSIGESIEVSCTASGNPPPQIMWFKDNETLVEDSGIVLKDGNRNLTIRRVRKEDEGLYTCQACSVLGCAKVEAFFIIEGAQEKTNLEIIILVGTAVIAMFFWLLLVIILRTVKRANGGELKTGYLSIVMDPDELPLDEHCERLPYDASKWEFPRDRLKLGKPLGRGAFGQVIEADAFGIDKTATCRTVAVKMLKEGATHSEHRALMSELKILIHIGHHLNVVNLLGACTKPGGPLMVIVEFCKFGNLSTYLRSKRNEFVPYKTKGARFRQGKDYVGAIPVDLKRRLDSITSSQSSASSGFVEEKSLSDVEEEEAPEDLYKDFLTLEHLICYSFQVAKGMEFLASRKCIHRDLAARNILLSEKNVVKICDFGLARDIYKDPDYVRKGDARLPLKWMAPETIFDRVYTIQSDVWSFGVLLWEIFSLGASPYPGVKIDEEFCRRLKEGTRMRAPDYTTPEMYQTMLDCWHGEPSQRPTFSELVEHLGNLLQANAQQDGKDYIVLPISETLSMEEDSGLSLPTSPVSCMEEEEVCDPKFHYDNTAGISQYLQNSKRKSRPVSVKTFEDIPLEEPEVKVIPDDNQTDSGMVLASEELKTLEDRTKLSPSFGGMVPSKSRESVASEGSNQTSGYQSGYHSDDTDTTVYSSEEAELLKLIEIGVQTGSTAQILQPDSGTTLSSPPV
Testis-specific serine/threonine-protein kinase 1 (Homo sapiens), sequence (Q9BXA7 whole entry): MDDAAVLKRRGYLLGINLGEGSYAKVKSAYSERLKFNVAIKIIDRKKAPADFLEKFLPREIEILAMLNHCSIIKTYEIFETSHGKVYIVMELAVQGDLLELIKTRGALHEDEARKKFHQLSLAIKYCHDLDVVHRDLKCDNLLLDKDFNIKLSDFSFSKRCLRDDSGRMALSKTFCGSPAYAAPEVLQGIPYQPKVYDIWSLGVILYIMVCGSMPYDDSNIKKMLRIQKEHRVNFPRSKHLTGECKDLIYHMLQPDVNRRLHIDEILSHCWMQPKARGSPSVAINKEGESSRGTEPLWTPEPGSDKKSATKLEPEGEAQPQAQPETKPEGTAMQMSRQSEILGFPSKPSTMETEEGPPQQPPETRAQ

c1ccc(C2CCN(c3cnc4c(N5CCOCC5)nccn34)CC2)cc1
inhibition [1]: 31.4% | IC50 [2]: > 10 µM (not active)

COCCc1ccc(-c2c(C)nc3c(N4CCOCC4)ccnn23)cn1 [JNJ-42396302]
inhibition [3]: 1% | inhibition [1]: 78.2% | inhibition [4]: -3% | effect (Homo sapiens): -7.3% | effect [5]: 2.15% | Ki [6]: 8.74 µM | inhibition [7]: 1% | effect [8]: 6.7% | effect [9]: 0.15% | inhibition [10]: 35% | effect [11]: 2.05% | effect [12]: 6.7% | inhibition [13]: 0% | Increase in cAMP [14]: 2.3 fold | inhibition [15]: 9% | effect [16]: 4.9% | inhibition [17]: 15% | inhibition [18]: 3% | inhibition [19]: -4% | inhibition [20]: 9% | inhibition [21]: 0% | effect (Rattus norvegicus): -25.3% | inhibition [22]: 0% | inhibition [23]: -2% | inhibition [24]: 11% | effect [25]: -23.4% | inhibition [26]: 4% | effect [27]: 3.35% | inhibition [28]: 2% | inhibition [29]: -5.24% | inhibition [30]: 6% | Ki [31]: 32 µM | inhibition [32]: 10% | inhibition [33]: 4% | inhibition [34]: -7% | inhibition [35]: -2%
